# Assay results taken from ChEMBL document CHEMBL1126780, “Selective non-nucleoside HIV-1 reverse transcriptase inhibitors. New 2,3-dihydrothiazolo[2,3-a]isoindol-5(9bH)-ones and related compounds with anti-HIV-1 activity” (J Med Chem, 1993).
# pIC50: −log10 of the molar value. Where a name gives a salt, the structure may show the parent alone.
# Tested on: MT2
# Experiment: Inhibitory concentration which prevents the spread of HIV-1 IIIB infection in MT2 T-lymphoid cells
# Assay type: functional, cell-based
# Settings: Homo sapiens
row,SMILES,pIC50
1,Cc1ccnc(C23SCCN2C(=O)c2cccnc23)c1 (stereo not given),5.11
2,O=C1c2ccccc2[C@@]2(c3cccc4ccccc34)SCCN12,7.34
3,Cc1cc(C)cc([C@]23SCCN2C(=O)c2ccccc23)c1,8.00
4,Cc1cccc([C@]23SCCN2C(=O)c2ccccc23)c1,7.29
5,CC(C)=CCN1Cc2cccc3[nH]c(=S)n(c23)C[C@@H]1C,6.66
6,O=C1c2ccc(Cl)cc2[C@@]2(c3ccccc3)SCCN12,7.13
7,O=C1c2ccccc2[C@@]2(c3ccccc3)SCCN12,6.41
8,CCNc1cccnc1N1CCN(C(=O)c2cc3cc(OC)ccc3[nH]2)CC1 [ATEVIRDINE MESYLATE],5.80
9,CCc1cc(NCc2nc3c(Cl)ccc(Cl)c3o2)c(O)nc1C [L-697661],7.10
10,Cc1ccnc2c1NC(=O)c1cccnc1N2C1CC1 [NEVIRAPINE],6.52

# Biological target: Human immunodeficiency virus type 1 reverse transcriptase (Human immunodeficiency virus 1, UniProt Q72547)
# Experiment: Inhibitory activity against HIV-1 reverse transcriptase (HIV-RT)
# Settings: not given
row,SMILES,pIC50
1,Cc1ccc(C)c(C23SCCN2C(=O)c2ccccc23)c1 (stereo not given),6.01
2,O=C1c2ccncc2C2(c3ccccc3)SCCN12 (stereo not given),4.77
3,O=C1c2ccccc2[C@]2(c3ccccc3)SCCN12,4.40
4,O=C1c2ccc(C(F)(F)F)cc2C2(c3ccccc3)SCCN12 (stereo not given),4.75
5,O=C1c2ccccc2C2(c3cccc(O)c3)SCCN12 (stereo not given),4.90
6,O=C1c2ccccc2C2(c3ccccc3)SCCCN12 (stereo not given),5.66
7,NC(=O)[C@H]1CSC2(c3ccccc3)c3ccccc3C(=O)N12 (stereo not given in full),4.23
8,Cc1ccc(C23SCCN2C(=O)c2ccccc23)cc1 (stereo not given),6.11
9,O=C1c2ccccc2C2(c3cccc([N+](=O)[O-])c3)SCCN12 (stereo not given),6.07
10,Cc1ccnc(C23SCCN2C(=O)c2ccccc23)c1 (stereo not given),6.00
11,O=C1c2ccccc2C2(c3cccnc3)SCCN12 (stereo not given),4.55
12,Cc1cccc(C23SCCN2C(=O)c2ccccc23)c1C (stereo not given),5.78
13,O=C1c2ccccc2C2(c3ccco3)SCCN12 (stereo not given),5.87
14,S=C1c2ccccc2C2(c3ccccc3)SCCN12 (stereo not given),5.46
15,O=C1c2ccccc2C2(c3ccccc3)OCCN12 (stereo not given),5.21
16,COc1ccc2c(c1)C(=O)N1CCSC21c1ccccc1 (stereo not given),5.40
17,Cc1ccnc(C23SCCN2C(=O)c2cccnc23)c1 (stereo not given),5.34
18,Cc1ccc2c(c1)C1(c3ccccc3)SCCN1C2=O (stereo not given),6.14
19,O=C1c2cccnc2C2(c3ccccn3)SCCN12 (stereo not given),4.64
20,O=C1c2ccccc2C2(c3ccccn3)SCCN12 (stereo not given),5.23
21,O=C1c2ccccc2C2(c3cc(Cl)cc(Cl)c3)SCCN12 (stereo not given),6.23
22,O=C1c2ccccc2C2(c3cccc4c3CCC4)SCCN12 (stereo not given),6.05
23,O=C1c2ccccc2[C@@]2(c3cccc4ccccc34)SCCN12,6.82
24,C[C@H]1CN2C(=O)c3ccccc3C2(c2ccccc2)O1 (stereo not given in full),< 4.00
25,Cc1cc(C)cc([C@]23SCCN2C(=O)c2ccccc23)c1,7.80
26,O=C1c2cc(Cl)ccc2C2(c3ccccc3)SCCN12 (stereo not given),4.62
27,O=C1c2ccccc2C2(c3ccccc3)NCCCN12 (stereo not given),< 5.00

row,SMILES,pIC50
1,COc1ccc2c(c1)C1(c3ccccc3)SCCN1C2=O (stereo not given),5.44
2,Cc1ccc(C23SCCN2C(=O)c2ccccc23)cc1C (stereo not given),6.41
3,O=C1c2ccccc2C2(c3ccccc3)OCCCN12 (stereo not given),4.29
4,COc1cccc(C23SCCN2C(=O)c2ccccc23)c1 (stereo not given),6.01
5,O=C1c2ccccc2C2(c3ccccc3)SCCN12 (stereo not given),6.15
6,Cc1cccc([C@]23SCCN2C(=O)c2ccccc23)c1,7.46
7,CC(C)c1cccc(C23SCCN2C(=O)c2ccccc23)c1 (stereo not given),5.68
8,O=C1c2ccccc2C2(c3ccccc3)CCCN12 (stereo not given),4.82
9,O=C1c2cc(Cl)c(Cl)cc2C2(c3ccccc3)SCCN12 (stereo not given),5.35
10,O=C1c2cc3ccccc3cc2C2(c3ccccc3)SCCN12 (stereo not given),5.00
11,O=C1c2c(ccc3ccccc23)C2(c3ccccc3)SCCN12 (stereo not given),< 4.00
12,O=C1c2cccc(Cl)c2C2(c3ccccc3)SCCN12 (stereo not given),6.54
13,O=C1c2ccccc2C2(c3ccc(Cl)c(Cl)c3)SCCN12 (stereo not given),5.40
14,O=C1c2ccc(Cl)cc2C2(c3ccccc3)SCCN12 (stereo not given),6.72
15,Cc1cccc(C23SCCN2C(=O)c2cccnc23)n1 (stereo not given),5.18
16,O=C1c2ccc([N+](=O)[O-])cc2C2(c3ccccc3)SCCN12 (stereo not given),5.00
17,O=C1c2ccccc2C2(c3c4ccccc4cc4ccccc34)SCCN12 (stereo not given),6.05
18,O=C1c2ccccc2C2(c3cccc(Cl)c3)SCCN12 (stereo not given),6.85
19,O=C1c2ccc(Cl)cc2[C@@]2(c3ccccc3)SCCN12,7.05
20,CC(C)c1ccc(C23SCCN2C(=O)c2ccccc23)cc1 (stereo not given),5.00
21,Cc1ccc2c(c1)C(=O)N1CCSC21c1ccccc1 (stereo not given),5.00
22,O=C1c2ccccc2C2(c3ccc(Cl)cc3)SCCN12 (stereo not given),5.40
23,Cc1cccc2c1C(=O)N1CCSC21c1ccccc1 (stereo not given),5.10
24,O=C1c2ccccc2C2(c3ccc[nH]3)SCCN12 (stereo not given),< 4.00
25,COc1ccc(C23SCCN2C(=O)c2ccccc23)cc1 (stereo not given),< 4.52
26,O=C1c2cccnc2C2(c3ccccc3)SCCN12 (stereo not given),5.46
27,O=C1c2cnccc2C2(c3ccccc3)SCCN12 (stereo not given),< 4.00

row,SMILES,pIC50
1,O=C(O)[C@H]1CSC2(c3ccccc3)c3ccccc3C(=O)N12 (stereo not given in full),< 4.00
2,C[C@@H]1COC2(c3ccccc3)c3ccccc3C(=O)N12 (stereo not given in full),4.40
3,COC(=O)[C@H]1CSC2(c3ccccc3)c3ccccc3C(=O)N12 (stereo not given in full),6.66
4,O=C1c2ccccc2C2(c3ccccc3)N1CCS2(=O)=O (stereo not given),< 5.00
5,N#Cc1cccc(C23SCCN2C(=O)c2ccccc23)c1 (stereo not given),5.74
6,C[C@H]1COC2(c3ccccc3)c3ccccc3C(=O)N12 (stereo not given in full),4.14
7,Cc1cc(C)cc(C23SCCN2C(=O)c2ccccc23)c1 (stereo not given),7.08
8,O=C1c2ncccc2C2(c3ccccc3)SCCN12 (stereo not given),< 4.00
9,O=C1c2ccc3ccccc3c2C2(c3ccccc3)SCCN12 (stereo not given),4.59
10,Cc1ccccc1C12SCCN1C(=O)c1ccccc12 (stereo not given),5.20
11,O=C1c2ccccc2C2(c3cccs3)SCCN12 (stereo not given),5.58
12,Cc1cccc(C23SCCN2C(=O)c2ccccc23)c1 (stereo not given),7.46
13,O=C1c2ccccc2C2(c3ccccc3)Sc3ccccc3CN12 (stereo not given),4.40
14,O=C1c2ccccc2C2(c3ccccc3)NCCN12 (stereo not given),< 4.00
15,O=C1c2ccccc2C2(c3ccccc3)CCCCN12 (stereo not given),4.12
16,CCc1cccc(C23SCCN2C(=O)c2ccccc23)c1 (stereo not given),5.96
17,Nc1ccc2c(c1)C1(c3ccccc3)SCCN1C2=O (stereo not given),5.35
18,Cc1cccc(C23SCCN2C(=O)c2ccccc23)n1 (stereo not given),5.39
19,O=C1c2ccccc2[C@@]2(c3ccccc3)SCCN12,6.55
20,O=C1c2ccccc2C2(c3ccncc3)SCCN12 (stereo not given),< 4.52
21,O=C1c2ccccc2C2(c3ccccc3)N1CC[S+]2[O-] (stereo not given),5.84
22,C[C@@H]1CN2C(=O)c3ccccc3C2(c2ccccc2)O1 (stereo not given in full),4.42
23,Nc1cccc(C23SCCN2C(=O)c2ccccc23)c1 (stereo not given),5.34
24,O=C1c2ccccc2C2(c3cccc4ccccc34)SCCN12 (stereo not given),6.89
25,O=C1c2ccccc2C2(c3cccc(C(F)(F)F)c3)SCCN12 (stereo not given),5.98
26,CCc1cc(NCc2nc3c(Cl)ccc(Cl)c3o2)c(O)nc1C [L-697661],9.00
